Molecules are shown by their SMILES. pKi: −log10 of the molar value.

One assay addresses T1, Adenosine receptor A3 (Mus musculus, UniProt Q61618).
T1 sequence (Q61618 whole entry): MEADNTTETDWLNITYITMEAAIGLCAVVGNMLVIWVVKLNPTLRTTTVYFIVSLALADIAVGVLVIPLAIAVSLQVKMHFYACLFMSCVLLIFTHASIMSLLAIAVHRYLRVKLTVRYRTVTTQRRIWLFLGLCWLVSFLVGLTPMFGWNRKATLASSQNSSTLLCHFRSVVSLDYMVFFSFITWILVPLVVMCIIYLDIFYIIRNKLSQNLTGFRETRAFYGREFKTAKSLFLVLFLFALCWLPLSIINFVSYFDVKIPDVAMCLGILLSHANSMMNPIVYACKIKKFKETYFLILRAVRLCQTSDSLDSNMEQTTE
Briefly: Displacement of [125I] N6-4-amino-3-iodobenzyl adenosine 5-N-methyluronamide from mouse A3A receptor stably expressed in HEK293 cell membrane by radioligand inhibition assay.
Details: not given
Type of assay: cell membranes.
In turn, `CNC(=O)[C@@]12C[C@@H]1[C@@H](n1cnc3c(NCCc4ccc(OC)c(O)c4)nc(OCCC(C)C)nc31)[C@H](O)[C@@H]2O` showed a pKi of 8.30.

Turning to `CNC(=O)[C@@]12C[C@@H]1[C@@H](n1cnc3c(NCCc4ccc(O)c(OC)c4)nc(I)nc31)[C@H](O)[C@@H]2O`, the pKi was 8.65.

`CNC(=O)[C@@]12C[C@@H]1[C@@H](n1cnc3c(NCCc4ccc(O)c(O)c4)nc(C#Cc4ccc(Br)s4)nc31)[C@H](O)[C@@H]2O` gave a pKi of 8.60.

For the compound `CNC(=O)[C@@]12C[C@@H]1[C@@H](n1cnc3c(NCCc4ccc(O)c(O)c4)nc(C#Cc4ccc(Cl)s4)nc31)[C@H](O)[C@@H]2O`, the pKi is 9.04.

Take `CNC(=O)[C@@]12C[C@@H]1[C@@H](n1cnc3c(NCCc4ccc(O)c(OC)c4)nc(C#Cc4ccsc4)nc31)[C@H](O)[C@@H]2O`: the pKi was 8.68.

`CNC(=O)[C@@]12C[C@@H]1[C@@H](n1cnc3c(NCCc4ccc(O)c(OC)c4)nc(C#Cc4ccccc4)nc31)[C@H](O)[C@@H]2O` gave a pKi of 8.81.

The target in another assay is T2, Adenosine receptor A1 (Mus musculus, UniProt Q60612).
T2 sequence (Q60612 whole entry): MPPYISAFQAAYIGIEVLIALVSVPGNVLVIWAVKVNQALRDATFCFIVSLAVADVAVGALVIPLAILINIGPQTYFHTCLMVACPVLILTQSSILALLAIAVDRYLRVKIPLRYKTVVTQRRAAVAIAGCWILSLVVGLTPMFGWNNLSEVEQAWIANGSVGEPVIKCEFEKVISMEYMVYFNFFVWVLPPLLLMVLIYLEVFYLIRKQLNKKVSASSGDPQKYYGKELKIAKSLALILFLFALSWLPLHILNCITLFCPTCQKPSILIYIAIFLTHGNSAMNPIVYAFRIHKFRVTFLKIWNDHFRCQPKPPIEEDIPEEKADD
Kind of assay: Displacement of [3H] N6-R-phenylisopropyladenosine from mouse A1A receptor stably expressed in HEK293 cell membrane by radioligand inhibition assay. It counts as cell membranes.
Details: not given
On to `CNC(=O)[C@@]12C[C@@H]1[C@@H](n1cnc3c(NCCc4ccc(OC)c(O)c4)nc(OCCC(C)C)nc31)[C@H](O)[C@@H]2O`, for which the pKi was 6.32.

For `CNC(=O)[C@@]12C[C@@H]1[C@@H](n1cnc3c(NCCc4ccc(O)c(OC)c4)nc(I)nc31)[C@H](O)[C@@H]2O`, the pKi is 6.32.

`CNC(=O)[C@@]12C[C@@H]1[C@@H](n1cnc3c(NCCc4ccc(O)c(OC)c4)nc(C#Cc4ccccc4)nc31)[C@H](O)[C@@H]2O` showed a pKi of 5.29.

A further assay deals with T3, Adenosine receptor A2a (Homo sapiens, UniProt P29274). Briefly: Binding affinity to human adenosine A2A receptor expressed in human HEK293 cell membrane at 10 uM by radioligand inhibition assay. It counts as cell membranes.
T3 sequence (P29274 whole entry): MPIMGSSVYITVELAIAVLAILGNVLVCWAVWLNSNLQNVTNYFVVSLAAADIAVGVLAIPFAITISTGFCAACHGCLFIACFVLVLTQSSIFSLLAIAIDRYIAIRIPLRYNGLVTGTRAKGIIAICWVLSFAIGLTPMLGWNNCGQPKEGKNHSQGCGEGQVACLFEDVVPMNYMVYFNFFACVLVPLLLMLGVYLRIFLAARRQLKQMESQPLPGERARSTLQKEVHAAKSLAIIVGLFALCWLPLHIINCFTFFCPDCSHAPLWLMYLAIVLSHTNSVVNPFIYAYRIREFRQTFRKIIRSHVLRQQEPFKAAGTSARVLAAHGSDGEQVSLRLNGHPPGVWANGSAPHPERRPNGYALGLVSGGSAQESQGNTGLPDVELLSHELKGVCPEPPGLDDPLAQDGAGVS
Details: not given
For the compound `CNC(=O)[C@@]12C[C@@H]1[C@@H](n1cnc3c(NCCc4ccc(O)c(OC)c4)nc(I)nc31)[C@H](O)[C@@H]2O`, the inhibition came to 43%.

As for `CNC(=O)[C@@]12C[C@@H]1[C@@H](n1cnc3c(NCCc4ccc(O)c(O)c4)nc(C#Cc4ccc(Br)s4)nc31)[C@H](O)[C@@H]2O`, the inhibition is 6%.

As for `CNC(=O)[C@@]12C[C@@H]1[C@@H](n1cnc3c(NCCc4ccc(O)c(O)c4)nc(C#Cc4ccc(Cl)s4)nc31)[C@H](O)[C@@H]2O`, the inhibition is 8%.

The compound `CNC(=O)[C@@]12C[C@@H]1[C@@H](n1cnc3c(NCCc4ccc(O)c(OC)c4)nc(C#Cc4ccsc4)nc31)[C@H](O)[C@@H]2O` displayed an inhibition of 35%.

For `CNC(=O)[C@@]12C[C@@H]1[C@@H](n1cnc3c(NCCc4ccc(O)c(OC)c4)nc(C#Cc4ccccc4)nc31)[C@H](O)[C@@H]2O`, the inhibition worked out at 28%.

The next assay concerns the target T4, Adenosine receptor A1 (Homo sapiens) (UniProt P30542).
T4 sequence (whole entry): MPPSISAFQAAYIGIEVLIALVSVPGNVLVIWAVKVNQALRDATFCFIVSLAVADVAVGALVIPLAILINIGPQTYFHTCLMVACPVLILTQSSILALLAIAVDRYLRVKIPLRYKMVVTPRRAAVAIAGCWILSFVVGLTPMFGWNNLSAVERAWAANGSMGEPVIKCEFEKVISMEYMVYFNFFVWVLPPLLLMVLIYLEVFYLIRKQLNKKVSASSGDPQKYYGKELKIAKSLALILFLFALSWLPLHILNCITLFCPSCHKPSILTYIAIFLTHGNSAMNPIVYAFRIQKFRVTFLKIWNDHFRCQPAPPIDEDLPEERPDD
Briefly: Binding affinity to human adenosine A1A receptor expressed in human HEK293 cell membrane at 10 uM by radioligand inhibition assay. Type of assay: cell membranes.
Details: not given
For `CNC(=O)[C@@]12C[C@@H]1[C@@H](n1cnc3c(NCCc4ccc(O)c(OC)c4)nc(I)nc31)[C@H](O)[C@@H]2O`, the inhibition is 46%.

For the compound `CNC(=O)[C@@]12C[C@@H]1[C@@H](n1cnc3c(NCCc4ccc(O)c(O)c4)nc(C#Cc4ccc(Br)s4)nc31)[C@H](O)[C@@H]2O`, the inhibition worked out at 31%.

For the compound `CNC(=O)[C@@]12C[C@@H]1[C@@H](n1cnc3c(NCCc4ccc(O)c(O)c4)nc(C#Cc4ccc(Cl)s4)nc31)[C@H](O)[C@@H]2O`, the inhibition turned out to be 25%.

In turn, `CNC(=O)[C@@]12C[C@@H]1[C@@H](n1cnc3c(NCCc4ccc(O)c(OC)c4)nc(C#Cc4ccsc4)nc31)[C@H](O)[C@@H]2O` had an inhibition of 30%.

In turn, `CNC(=O)[C@@]12C[C@@H]1[C@@H](n1cnc3c(NCCc4ccc(O)c(OC)c4)nc(C#Cc4ccccc4)nc31)[C@H](O)[C@@H]2O` gave an inhibition of 2%.

The target in a further assay is T5, Adenosine receptor A3 (Homo sapiens, UniProt P0DMS8).
T5 sequence (P0DMS8 whole entry): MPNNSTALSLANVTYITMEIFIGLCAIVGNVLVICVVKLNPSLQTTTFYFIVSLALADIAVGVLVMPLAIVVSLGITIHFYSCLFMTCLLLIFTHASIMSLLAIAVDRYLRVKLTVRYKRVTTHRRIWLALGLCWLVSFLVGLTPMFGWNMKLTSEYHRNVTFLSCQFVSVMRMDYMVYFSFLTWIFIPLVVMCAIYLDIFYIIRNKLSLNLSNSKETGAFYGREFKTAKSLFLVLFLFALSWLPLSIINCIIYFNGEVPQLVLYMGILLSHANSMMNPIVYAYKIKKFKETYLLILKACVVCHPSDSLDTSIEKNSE
Briefly: Displacement of [125I] N6-(4-amino-3-iodobenzyl)adenosine-5'-N-methyluronamide from human A3A receptor stably expressed in HEK293 cell membrane by radioligand inhibition assay. It counts as cell membranes.
Details: not given
In the case of `CNC(=O)[C@@]12C[C@@H]1[C@@H](n1cnc3c(NCCc4ccc(O)c(OC)c4)nc(I)nc31)[C@H](O)[C@@H]2O`, the pKi was 8.20.

With `CNC(=O)[C@@]12C[C@@H]1[C@@H](n1cnc3c(NCCc4ccc(O)c(O)c4)nc(C#Cc4ccc(Br)s4)nc31)[C@H](O)[C@@H]2O`, the pKi was 7.20.

Turning to `CNC(=O)[C@@]12C[C@@H]1[C@@H](n1cnc3c(NCCc4ccc(O)c(O)c4)nc(C#Cc4ccc(Cl)s4)nc31)[C@H](O)[C@@H]2O`, the pKi was 7.68.

`CNC(=O)[C@@]12C[C@@H]1[C@@H](n1cnc3c(NCCc4ccc(O)c(OC)c4)nc(C#Cc4ccsc4)nc31)[C@H](O)[C@@H]2O` had a pKi of 8.48.

Compound `CNC(=O)[C@@]12C[C@@H]1[C@@H](n1cnc3c(NCCc4ccc(O)c(OC)c4)nc(C#Cc4ccccc4)nc31)[C@H](O)[C@@H]2O` showed a pKi of 9.25.

The target in another assay is T3, Adenosine receptor A2a. Briefly: Displacement of [3H]-2-p-2-(carboxyethyl)phenyl-ethylamino-5'-N-ethylcarboxamidoadenosine from human A2A receptor stably expressed in HEK293 cell membrane by radioligand inhibition assay. It counts as cell membranes.
Details: not given
For `CNC(=O)[C@@]12C[C@@H]1[C@@H](n1cnc3c(NCCc4ccc(OC)c(O)c4)nc(OCCC(C)C)nc31)[C@H](O)[C@@H]2O`, the pKi is 5.31.

Another assay addresses T6, Adenosine receptor A1 (Mus musculus) (UniProt Q60612).
T6 sequence (whole entry): T2 sequence (Q60612 whole entry)
Briefly: Binding affinity to mouse adenosine A1A receptor expressed in human HEK293 cell membrane by radioligand inhibition assay. It counts as cell membranes. Also on record: concentration or dose not given beside the values. As to conditions: concentration not given here.
`CNC(=O)[C@@]12C[C@@H]1[C@@H](n1cnc3c(NCCc4ccc(O)c(OC)c4)nc(C#Cc4ccsc4)nc31)[C@H](O)[C@@H]2O` yielded an inhibition of 61%.

Values taken from ChEMBL document CHEMBL5154659, “A3 adenosine receptor agonists containing dopamine moieties for enhanced interspecies affinity” (Eur J Med Chem, 2022).
